Data: patent publication US8088818B2, “Catechol-based derivatives for treating or preventing diabetics” (National Taiwan University, priority 2006, dated 2012)

Assays:
[1] = test system: Insulin; assay: Insulin concentration before and after oral administration; assay type: in vivo, rat
Excerpt: However, it is also observed that the dominant effect for reducing the blood sugar on the type I diabetic rats, which are incapable of secreting insulin.

[2] = test system: rats; assay: Intravenous glucose tolerance test (IGTT); assay type: in vivo, rat; settings: oral 0.5 mg/ml/kg; 1000 mg/kg glucose intravenous, 30 minutes
[3] = test system: Type 2 diabetic rats; assay: Blood sugar lowering in insulin-induced type 2 diabetic rats after oral administration; assay type: in vivo, rat
Experimental: (c) Insulin-induced type 2 diabetic rats: the abdominal cavity of the male Wistar rats of 12 weeks age are injected with 0.5 IU/kg long-term insulin (MonotardR HM) three times a day for fourteen days. Then, the 10 mg/kg tolbutamide, an anti-diabetic drug of sulfonylurea class, is injected into the abdominal cavity. Phlebotomize 0.1 ml blood respectively at the preadministration and the postadministration of sixty minutes, and calculate the reduced value of the blood sugar. If the variation of the ability of lowering blood sugar is less than 10%, which is deemed as the type II (insulin resistance) diabetes rat.
(§1) (d) The administration: Dissolve the medicine equivalently in deionized water, and then administrate the mentioned solution into the normal and diabetic rats by an orally perfusion. Keep with the desired concentration of the perfusion amount by taking suitable amount of the medicine solution according to the weight of the different animal.
(§2) The rats to be experimented should undergo a starvation for 8-12 hours overnight. Next day, the rats are anesthetized with 30 mg/kg pentobarbital by injecting into the abdominal cavity. After the rats fall asleep, fix the rats on the board with the rubber band. Open the groin, find the veins, bleed 0.1 ml blood from an empty stomach, and then feed the medicine into the body of the rats by taking orally. After 90 minutes, bleed and perform a centrifugation (13,000 rpm, 5 minutes) to separate the serum and the plasma. Take the 10 μl supernatant of the serum and add 1 ml reagent of the glucose kit thereinto by gently mixing. React for 5 minutes at 37 °C, followed by detecting the value of the blood sugar by means of BST330 based on the different absorption level. […] The value of the blood sugar (mg/dL) is calculated by comparing the level of redness with contrasting the standard curve.
(§3) (The value of blood sugar at postadministration)−(The value of blood sugar at preadministration)/(The value of blood sugar at preadministration)×100%

[4] = test system: coronary artery; assay: Flow rate of the coronary artery in the isolated perfused rat heart (Langendorff); settings: for coronary flow: isolated Wistar rat heart
Experimental: Each of the male Wistar rats weighs about 200-250 grams, and is anesthetized with 25 mg/kg pentobarbital and 16 mg/kg heparin by injecting into the abdominal cavity. After falling asleep, separate the cervical vertebra and immediately take the heart out hanging on the constant pouring pressure circulation instrument (Langendorff, AD Instruments Pty Ltd, ML870B2) and fill a 37[…] pouring solution of 95% of oxygen and 5% of carbon dioxide with the artery (119.7 mM NaCl, 23.8 mM NaHCO3, 5.6 mM glucose, 1.2 mM CaCl2, 1.1 mM MgCl2, 0.3 mM NaH2PO4, and 5.0 mM KCl), which washes the heart and clean out the blood water by pouring in a reverse direction. The rate of the reverse pouring is 10 ml/min, followed by maintaining the pouring pressure of the coronary artery at 80 mmHg. After balancing for thirty minutes, measure the rate of the pouring solution flowing in the heart, and observe the change of the rate the pouring solution flowing in the heart while the testing drug is added.

[5] = test system: Type 1 diabetic rats; assay: Blood sugar lowering in streptozotocin-induced type 1 diabetic rats after oral administration; assay type: in vivo, rat; settings: for % decrease in plasma glucose: type 1 diabetic rats, 90 min
Experimental: (b) Streptozocin-induced type 1 diabetic rats: the male Wistar rats of 8 weeks age undergo a starvation for 72 hours, followed by anaesthetizing the rats by injecting with 30 mg/kg pentobarbital into the abdominal cavity. After the rats fall asleep, 60 mg/kg streptozotocin (STZ) is administrated by an intravenous injection. After a week, phlebotomize and obtain a value of blood sugar by a glucose kit, wherein the glucose kit is further analyzed by Biosystem S.A., Barcelona Spain, BST330. While the value of the blood sugar is greater than 400 mg/dL and the typical three symptoms, eating more, drink more, micturition occur, it is deemed as Type 1 Diabetic rats.
as §1, §2, §3
(§4) The results of the experiments are presented in the average value±the standard error (mean±SE), and the variations therebetween are evaluated according to the Student's t-test, while the variations thereamong are evaluated according to one-way ANOVA and Bonferroni's t-test, wherein P<0.05 is deemed to have apparent differences.

[6] = test system: Normal rats; assay: Blood sugar lowering in normal rats after oral administration; assay type: in vivo, rat
Experimental: (a) Male Wistar rats are provided from the National Laboratory Animal Breeding and Research Center (Taipei, Taiwan), each of whose weight is about 200-250 grams, and the average age thereof is above 8 weeks. They were housed under conditions of constant temperature (25±1[…]) and controlled illumination (light time and dark time are respectively 12 hours). Food and water were available.
as §1, §2, §3, §4

In the case of O=C(/C=C/c1ccc(O)c(O)c1)NCCc1ccccc1 [370G (45)], the “Insulin, Post-treatment (30 min)” value ([1]; 1 mg/kg, p.o., post-treatment (30 min)) is reported as 14.9 ± 3.4 μIU/ml, the “Insulin, Pre-treatment” value ([1]; 1 mg/kg, p.o., pre-treatment (baseline)) is reported as 7.7 ± 1.0 μIU/ml and the “secretion of insulin (in words)” value ([1]; oral 1.0 mg/kg, in 60 minutes) is reported as “increased”. For the same compound, the “glucose availability in IGTT versus control” value [2] was “raised”, the “% decrease in plasma glucose” value ([3]; type 2 diabetic rats, 0.05 mg/kg oral, 90 min) was 7.4 ± 2.6% and the “% decrease in plasma glucose” value ([3]; type 2 diabetic rats, 0.1 mg/kg oral, 90 min) was 17.2 ± 2.6 %. For the same compound, the “% decrease in plasma glucose” value ([3]; type 2 diabetic rats, 0.5 mg/kg oral, 90 min) was 20.1 ± 3.4 %, the “% decrease in plasma glucose” value ([3]; type 2 diabetic rats, 1.0 mg/kg oral, 90 min) was 23.3 ± 3.3 % and the “% decrease in plasma glucose” value ([3]; type II diabetic rats, 0.5 mg/kg, p.o., 90 minutes) was 20.0 ± 7.7%. For the same compound, the “reducing the blood sugar (in words)” value ([3]; type II diabetics rats, oral 0.05 to 1.0 mg/kg) was “phenomenon of reducing the blood sugar are shown”, the “effect on coronary flow rate (in words)” value ([4]; Wistar rats, Tables 15 and 16) was “capable of increasing the coronary flow rate” and the coronary flow ([4]; conc. 0 (baseline)) was 11.8 ± 1.0 mL/min. It also gave a coronary flow ([4]; conc. 0.1 (unit printed .[…]M)) of 12.4 ± 1.1 mL/min, a coronary flow ([4]; conc. 0.3 (unit printed .[…]M)) of 13.2 ± 1.4 mL/min and a coronary flow ([4]; conc. 1 (unit printed .[…]M)) of 15.6 ± 1.2 mL/min. The coronary flow ([4]; conc. 3 (unit printed .[…]M)) was 17.4 ± 1.3 mL/min, the coronary flow ([4]; conc. 10 (unit printed .[…]M)) was 19.5 ± 0.7 mL/min and the “% decrease in plasma glucose” value ([5]; 0.1 mg/kg oral) was 11.8 ± 5.5 %. The “% decrease in plasma glucose” value ([5]; 0.5 mg/kg oral) was 13.8 ± 4.3 %, the “% decrease in plasma glucose” value ([5]; 1.0 mg/kg oral) was 11.6 ± 1.7 % and the “effect for reducing the blood sugar, compared among rat models” value ([5]; type I diabetic rat) was “weakest effect”. The “% decrease in plasma glucose” value ([6]; 0.5 mg/kg oral, Table 14) was 32.8 ± 3.4 %, the “Post-treatment Plasma glucose” value ([6]; 0.5 mg/kg oral, post-treatment) was 81.0 ± 5.7 mg/dL and the “Pre-treatment Plasma glucose” value ([6]; 0.5 mg/kg oral, pre-treatment (baseline)) was 120.5 ± 5.3 mg/dL. The “effect for reducing the blood sugar, compared among rat models” value ([6]; normal rat) was “strongest effect”, the “% decrease in plasma glucose” value ([6]; normal rats, 0.01 mg/kg oral, 90 min) was 11.4 ± 3.1% and the “% decrease in plasma glucose” value ([6]; normal rats, 0.05 mg/kg oral, 90 min) was 32.0 ± 1.1 %. The “% decrease in plasma glucose” value ([6]; normal rats, 0.1 mg/kg oral, 90 min) was 32.9 ± 2.3 %, the “% decrease in plasma glucose” value ([6]; normal rats, 0.5 mg/kg oral, 90 min) was 32.8 ± 3.4 % and the “% decrease in plasma glucose” value ([6]; normal rats, 1.0 mg/kg oral, 90 min) was 29.5 ± 1.7 %. The “reducing the blood sugar (in words)” value ([6]; normal rats, oral 0.05 to 1.0 mg/kg) was “phenomenon of reducing the blood sugar are shown”.
